# How the values were obtained:
# [1] = assay type: physicochemical
# Method: Beads prepared in accordance with the procedure of Example 1 and containing 50 μg of ^125 I-TGF-β1 in 3.75-7.5 mg (original weight of alginate) were transferred to 15.0 mL polypropylene tubes containing 13.0 mL of PBS or of 0.1 N HCl at 37° C. In some cases, 1% BSA was added to the release media. The polypropylene tubes were gently shaken using a orbital shaker (200 rotations/minutes). At selected times, 100 μL aliquots were taken and counted for radioactivity. Care was taken so that aliquots contained no beads or bead fragments. The cumulative ^125 I-TGF-β1 released from the beads was calculated after correcting for volume changes. After 24 hours, the beads in 0.1 N HCl were transferred to PBS.
# (§1) Alginate beads containing TGF-β1 and 90 kDa PAA (75:10 w/w in alginate:PAA) were prepared following the procedure of Example 1, and were acid treated for 30 minutes at 37° C. in 0.1 N HCl, as described in Example 2. The beads were then placed in PBS, pH 7.4, and the immunoreactivity of released TGF-β1 was determined by ^125 I radiolabel and ELISA, as described in Example 2. In addition, a growth inhibitory assay (GIA) was used to determine the bioactivity of the TGF-β1. The GIA measures the ability of TGF-β1 to inhibit the growth of mink lung epithelial cells (ATCC #CCL64) (T. Ikedaet al., "Human Transforming Growth Factor Type β2: Production By a Prostatic Adenocarcinoma Cell Line, Purification and Initial Characterization," Biochemistry 26:2406-2410 (1987)). The activity of the growth factor was determined by the inhibitory response of the cells to different concentrations of TGF-β1. Cell viability was based on the enzymatic cleavage by metabolically active cells of a tetrazolium salt into an orange/red formazan product. Prior to the assay cells were trypsinized and plated in a 96-well flat bottomed plate (Costar) at a concentration of 1000 cells/well. After allowing the cells to attach, samples containing the TGF-β1 and a reference standard were diluted to concentrations ranging from 1000 to 1.95 pg/ml and added to the wells. The cells were incubated for four days after which time a 100 μL solution containing 25 μg of sodium 3"-[1-(phenylamino)-carbonyl]-3,4-tetrazolium-bis(4-methoxy-6-nitro) benzene sulfonic acid hydrate (Diagnostic Chemicals, Ltd.) and 5 mM phenazine methosulfate (Aldrich) in media was added to each well. The cells were then incubated for 7 hours and the plates read on a microplate reader at an absorbance of 450 nm with a 630 nm reference filter. The specific activity of a sample was calculated relative to the reference material.
# [2] = system: mouse anti-TGF-β1 monoclonal antibody, 1D11; assay: ELISA measured binding activity (immunoreactivity) of TGF-β1
# Method: The ability of released TGF-β1 from both untreated and acid treated beads (as described above) to be recognized (bound) by a monoclonal antibody was assayed by ELISA as follows. An enzyme linked immunosorbent assay (ELISA) was used to quantitate the amount of immunoreactive TGF-β1 released from the untreated (PBS) and acid treated (HCl) alginate beads. The ELISA was based on the ability of a mouse anti-TGF-β1 monoclonal antibody, 1D11 (Bristol-Myers Squibb, Seattle, WA), to bind to the TGF-β1 molecule. When the 1D11 antibody was coated on 96-well immunoassay plates it captured TGF-β1 from the applied sample and standard solutions. Captured TGF-β1 was then bound by biotinylated 1D11 antibody which in turn was bound by a horseradish peroxidase/avidin D conjugate (Vector Labs cat #A-2004). A color reaction occurred by adding a chromophore/substrate solution of 3,3',5,5'-tetramethylbenzidine in CPB containing hydrogen peroxide. The reaction was stopped with the addition of 1 N sulfuric acid and the A450 was determined by a plate reader. Concentrations of the unknown samples were quantified relative to a TGF-β1 standard curve run on the same plate.
# The immunoreactivity of TGF-β1 in solution in the presence of anionic amino acids, polyanions and polycations was studied using the ELISA procedure described in Example 2. To 1 mg/mL solutions of TGF-β1 in 5 mM HCl was added from 0 to 0.14%(w/v) of glutamic acid, aspartic acid, poly-L-aspartic acid (PLAA, Mw=13 kDa), sodium carboxymethyl cellulose (Na CMC, high viscosity), or polyacrylic acid (PAA, 2, 90 or 750 kDa). The reactivity of the TGF-β1 was then determined by the ELISA procedure, as described in Example 2.
# Next, the ability of the additives to […] was investigated. Alginate solutions were prepared in accordance with the procedure of Example 1, incorporating 50 μg of TGF-β1, 0-0.15% (w/v) of sodium alginate and 0.1-1.0 mg (up to 0.125% w/v) of PAA (750 kDa), PLAA (13 kDa), NaCMC high viscosity or glutamic acid. The immunoreactivity of TGF-β1 was determined by ELISA as described in Example 2.
# Alginate beads were prepared according to the procedure of Example 1 incorporating 50 μg TGF-β1 and 0.1-1.0 mg of additives. […] In addition, Poly-L-Lysine (PLL;123 kDa) was incorporated as a potential polycationic competitor. The additives were incorporated at an alginate:additive w/w ratio of from 75:10 to 75:1 as indicated below in Table 3.
# To further assess the effect of amount of PAA incorporation on immunoreactivity of released TGF-β1, alginate beads were prepared by incubating TGF-β1 and PAA (90 kDa) for either 5 or 60 minutes (see FIG. 7) in w/w ratios of 75:1, 75:6 and 75:10, followed by dilution, addition of alginate, and bead formation in 1% CaCl2. The beads were acid treated in 0.1 N HCl at 37° C. for 30 minutes and then incubated at 37° C. in PBS, pH 7.4.
# [3] = system: mink lung epithelial cells (ATCC #CCL64); assay: Growth inhibitory assay (GIA) bioactivity of released TGF-β1; assay type: cell-based; conditions: acid treated beads 75:10 w/w PAA 90 kDa; PBS pH 7.4
# Method: as §1, with “After allowing the cells to attach, samples containing the TGF-β1 and a reference standard were diluted to concentrations ranging from 1000 to 1.95 pg/ml and added to the wells. The cells were incubated for four days after which time a 100 μL solution containing 25 μg of sodium 3"-[1-(phenylamino)-carbonyl]-3,4-tetrazolium-bis(4-methoxy-6-nitro) benzene sulfonic acid hydrate (Diagnostic Chemicals, Ltd.) and 5 mM phenazine methosulfate (Aldrich) in media was added to each well.” left out
# [4] = acid treated beads 75:10 w/w PAA 90 kDa, PBS pH 7.4
substance,measurement,setting,value
"TGF-β1: TGF-β1 (1 mg/mL in 5 mM HCl) obtained from Bristol-Myers Squibb (Seattle, WA)",Effect of acid treatment time on dissolution profiles and TGF-β1 release rates,"[1]; 0.1 N HCl 37° C. 0.25-24 hr, then PBS pH 7.4",little difference
same,Total release of TGF-β1 (125I radiolabel),[1]; [4],90%
same,Effect of hydrolysis time on ELISA measured binding activity of TGF-β1,"[2]; 0.1 N HCl, 37° C., 0.25-24 hr",no significant differences
same,TGF-β1 released and immunoreactive (ELISA),[2]; [4],over 80%
same,"% Binding Activity of released TGF-β1, HCl","[2]; alginate beads acid treated in 0.1 N HCl, no additive",14%
same,"% Binding Activity of released TGF-β1, PBS","[2]; alginate beads not acid treated (PBS), no additive",0%
same,"ELISA binding activity of TGF-β1 released from beads alone, in words",[2]; beads without PAA,no binding activity
same,"Immunoreactivity of TGF-β1, in words","[2]; released from calcium-alginate beads, in presence of alginate alone, or in presence of PAA (750 kDa)",little immunoreactivity
same,"Immunoreactivity of TGF-β1 with alginate, in words","[2]; solution, 0.015% alginate, no additive",no immunoreactivity
same,"% Active TGF-β1, 0% alginate","[2]; solution, % Alginate (w/v) 0",100%
same,"% Active TGF-β1, 0.0015% alginate","[2]; solution, % Alginate (w/v) 0.0015",65%
same,"% Active TGF-β1, 0.015% alginate","[2]; solution, % Alginate (w/v) 0.015",0%
same,"% Active TGF-β1, 0.15% alginate","[2]; solution, % Alginate (w/v) 0.15",0%
same,TGF-β1 bioactive (GIA),[3],more than 85%
